Measurements: US20170258774A1 (priority 2016, published 2017)

Key:
[1] = target: BChE (Homo sapiens, UniProt P06276); format: biochemical
[2] = target: BChE (Rattus norvegicus, UniProt Q9JKC1); format: biochemical
[3] = target: BChE (Cavia porcellus, UniProt H0V4F8); format: biochemical, guinea pig
Chain of BChE (Cavia porcellus, UniProt H0V4F8) (H0V4F8 29-602 limits assumed): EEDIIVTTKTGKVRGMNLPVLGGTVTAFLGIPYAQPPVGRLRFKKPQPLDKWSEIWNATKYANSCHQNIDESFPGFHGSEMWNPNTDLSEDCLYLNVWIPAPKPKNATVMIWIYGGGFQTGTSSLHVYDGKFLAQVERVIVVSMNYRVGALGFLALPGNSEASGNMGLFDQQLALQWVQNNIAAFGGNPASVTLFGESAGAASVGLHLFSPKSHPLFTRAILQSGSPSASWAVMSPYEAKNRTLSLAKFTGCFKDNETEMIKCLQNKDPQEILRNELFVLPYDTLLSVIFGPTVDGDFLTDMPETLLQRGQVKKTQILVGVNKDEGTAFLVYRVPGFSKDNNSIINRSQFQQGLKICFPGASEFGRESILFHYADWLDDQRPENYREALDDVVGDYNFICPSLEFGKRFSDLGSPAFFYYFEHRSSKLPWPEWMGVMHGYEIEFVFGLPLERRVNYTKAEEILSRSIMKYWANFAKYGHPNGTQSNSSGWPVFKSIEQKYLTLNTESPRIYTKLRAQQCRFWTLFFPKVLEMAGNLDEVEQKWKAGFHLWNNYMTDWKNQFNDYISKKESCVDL

Chain of BChE (Rattus norvegicus, UniProt Q9JKC1) (Q9JKC1 24-597 limits assumed): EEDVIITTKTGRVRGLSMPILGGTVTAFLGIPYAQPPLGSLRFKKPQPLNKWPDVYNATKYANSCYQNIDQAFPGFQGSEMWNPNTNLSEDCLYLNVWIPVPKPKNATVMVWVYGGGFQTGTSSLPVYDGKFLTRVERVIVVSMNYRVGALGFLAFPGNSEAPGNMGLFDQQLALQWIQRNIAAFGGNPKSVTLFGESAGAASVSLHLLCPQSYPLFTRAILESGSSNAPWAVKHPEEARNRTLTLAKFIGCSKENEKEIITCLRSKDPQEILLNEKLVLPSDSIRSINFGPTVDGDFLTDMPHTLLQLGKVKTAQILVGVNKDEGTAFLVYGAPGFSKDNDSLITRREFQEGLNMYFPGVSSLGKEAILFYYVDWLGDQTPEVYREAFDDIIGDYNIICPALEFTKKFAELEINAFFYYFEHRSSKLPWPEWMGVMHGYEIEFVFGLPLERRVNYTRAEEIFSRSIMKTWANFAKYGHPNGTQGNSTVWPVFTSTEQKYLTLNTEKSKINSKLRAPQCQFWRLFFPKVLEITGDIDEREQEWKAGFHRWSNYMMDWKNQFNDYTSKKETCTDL
Chain of BChE (Homo sapiens, UniProt P06276) (P06276 29-602): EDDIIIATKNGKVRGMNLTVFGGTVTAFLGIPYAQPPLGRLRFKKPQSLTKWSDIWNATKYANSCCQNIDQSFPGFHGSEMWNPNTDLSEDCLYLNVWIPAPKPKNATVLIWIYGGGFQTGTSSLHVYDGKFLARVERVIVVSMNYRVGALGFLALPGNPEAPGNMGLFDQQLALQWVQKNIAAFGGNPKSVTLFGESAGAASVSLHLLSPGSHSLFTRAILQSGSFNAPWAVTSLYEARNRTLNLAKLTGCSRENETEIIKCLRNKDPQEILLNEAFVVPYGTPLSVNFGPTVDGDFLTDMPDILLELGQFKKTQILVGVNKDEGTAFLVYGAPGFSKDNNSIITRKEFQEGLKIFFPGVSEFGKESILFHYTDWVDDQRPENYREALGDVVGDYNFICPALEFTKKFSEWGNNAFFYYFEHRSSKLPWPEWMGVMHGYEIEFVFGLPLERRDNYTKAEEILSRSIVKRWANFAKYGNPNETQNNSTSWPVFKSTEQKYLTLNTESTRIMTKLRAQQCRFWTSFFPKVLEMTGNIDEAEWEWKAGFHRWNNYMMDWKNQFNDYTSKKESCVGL

Row | Compound | OP Inhibitory Concentrations of at least 80% BChE [1] | OP Inhibitory Concentrations of at least 80% BChE [2] | OP Inhibitory Concentrations of at least 80% BChE [3] | BChE inhibitory potency relative to phorate oxon [2]
1 | CCOP(=O)(OCC)SCSCC [PHO, phorate oxon] | 0.178 µM | 10.0 µM | 5.60 µM | 
2 | CCOP(=O)(OCC)SC[S+]([O-])CC (centres unmarked) [PHOsox, phorate oxon sulfoxide] |  | 1.00 µM |  | ten-fold more potent
3 | CCOP(=O)(OCC)Oc1ccc([N+](=O)[O-])cc1 [PXN, phosphoric acid diethyl 4-nitrophenyl ester] | 0.032 µM | 1.78 µM | 0.178 µM | 
